Values quoted from earlier work in patent US20220323445A1, “REDUCING IMMUNOGENICITY TO PEGLOTICASE” (Horizon Therapeutics Ireland DAC, priority 2020, published 2022).

Assays:
[1] = patients treated with allopurinol; cited from earlier work
[2] = prophylaxis of gout; cited from earlier work

Row | SMILES | patients who develop allergic reactions [1] | severe hypersensitivity syndrome [1] | pharyngolaryngeal pain [2] [%]
1 | Oc1ncnc2[nH]ncc12 [allopurinol] | Approximately 2% | about 0.4% | 
2 | COc1cc2c(c(OC)c1OC)-c1ccc(OC)c(=O)cc1[C@@H](NC(C)=O)CC2 [colchicine] |  |  | 3
